Assay results from the NIST ThermoML archive (doi:10.1016/j.fluid.2016.08.014).
Numbers after ± are expanded uncertainties.

Assays:
[1] = Liquid, Vibrating tube method
[2] = refractive index (Na D-line) (dimensionless); conditions: 101.33 kPa, Liquid, Standard Abbe refractometry

NCCN [ethane-1,2-diamine]
[1]
Conditions	mass density [kg/m3]
293.15 K, 200 kPa	898 ± 1
293.15 K, 2500 kPa	899 ± 1
293.15 K, 5100 kPa	900 ± 1
293.15 K, 10000 kPa	903 ± 1
293.15 K, 15400 kPa	905 ± 1
293.15 K, 19800 kPa	907 ± 1
293.15 K, 25100 kPa	909 ± 1
293.15 K, 30200 kPa	911 ± 1
298.15 K, 101.33 kPa	895.323 ± 4
303.15 K, 300 kPa	890 ± 1
303.15 K, 2500 kPa	891 ± 1
303.15 K, 5000 kPa	892 ± 1
303.15 K, 10200 kPa	893 ± 1
303.15 K, 15000 kPa	896 ± 1
303.15 K, 20500 kPa	898 ± 1
303.15 K, 25100 kPa	900 ± 1
303.15 K, 30100 kPa	902 ± 1
313.15 K, 300 kPa	880 ± 1
313.15 K, 2500 kPa	880 ± 1
313.15 K, 5100 kPa	882 ± 1
313.15 K, 10000 kPa	884 ± 1
313.15 K, 15100 kPa	887 ± 1
313.15 K, 20100 kPa	889 ± 1
313.15 K, 25400 kPa	892 ± 1
313.15 K, 30400 kPa	894 ± 1
323.15 K, 200 kPa	870 ± 1
323.15 K, 2500 kPa	870 ± 1
323.15 K, 5100 kPa	872 ± 1
323.15 K, 10000 kPa	875 ± 1
323.15 K, 15000 kPa	878 ± 1
323.15 K, 19900 kPa	880 ± 1
323.15 K, 25100 kPa	882 ± 1
323.15 K, 29700 kPa	885 ± 1
333.15 K, 200 kPa	860 ± 1
333.15 K, 2500 kPa	861 ± 1
333.15 K, 5000 kPa	863 ± 1
333.15 K, 10000 kPa	866 ± 1
333.15 K, 15000 kPa	868 ± 1
333.15 K, 20000 kPa	871 ± 1
333.15 K, 25000 kPa	874 ± 1
333.15 K, 30000 kPa	876 ± 1
343.15 K, 200 kPa	850 ± 1
343.15 K, 2500 kPa	852 ± 1
343.15 K, 5100 kPa	853 ± 1
343.15 K, 10000 kPa	856 ± 1
343.15 K, 15000 kPa	860 ± 1
343.15 K, 20000 kPa	862 ± 1
343.15 K, 25100 kPa	865 ± 1
343.15 K, 30100 kPa	867 ± 1
353.15 K, 200 kPa	840 ± 1
353.15 K, 2500 kPa	842 ± 1
353.15 K, 5000 kPa	844 ± 1
353.15 K, 10200 kPa	847 ± 1
353.15 K, 15100 kPa	850 ± 1
353.15 K, 20000 kPa	853 ± 1
353.15 K, 25100 kPa	856 ± 1
353.15 K, 30100 kPa	859 ± 1
363.15 K, 200 kPa	830 ± 1
363.15 K, 2600 kPa	832 ± 1
363.15 K, 5100 kPa	834 ± 1
363.15 K, 10100 kPa	838 ± 1
363.15 K, 15000 kPa	840 ± 1
363.15 K, 20100 kPa	844 ± 1
363.15 K, 25600 kPa	847 ± 1
363.15 K, 30000 kPa	850 ± 1
373.15 K, 200 kPa	820 ± 1
373.15 K, 2500 kPa	822 ± 1
373.15 K, 5100 kPa	825 ± 1
373.15 K, 10100 kPa	828 ± 1
373.15 K, 15000 kPa	831 ± 1
373.15 K, 20100 kPa	835 ± 1
373.15 K, 25100 kPa	838 ± 1
373.15 K, 30200 kPa	841 ± 1
383.15 K, 200 kPa	810 ± 1
383.15 K, 2500 kPa	813 ± 1
383.15 K, 5200 kPa	815 ± 1
383.15 K, 10000 kPa	818 ± 1
383.15 K, 15200 kPa	822 ± 1
383.15 K, 20500 kPa	826 ± 1
383.15 K, 25000 kPa	829 ± 1
383.15 K, 30300 kPa	832 ± 1

[2]
Conditions	refractive index
293.15 K	1.45676 ± 0.00033
298.15 K	1.45453 ± 0.00033
